Usually pEC50 stands for the negative decadic logarithm of the EC50, by convention in mol/L. A high value points to a low EC50.

19 compounds from patent US12440496B2, “Natriuretic peptide receptor a agonists useful for the treatment of cardiometabolic diseases, kidney disease and diabetes” (Merck Sharp & Dohme LLC, priority 2019, dated 2025) can be followed below.

pEC50: −log10 of the molar value.

The target in the assay is T1, hNPRA (Homo sapiens, UniProt P16066).
T1 construct: expressed in transfected cells
T1 sequence (P16066 33-1061): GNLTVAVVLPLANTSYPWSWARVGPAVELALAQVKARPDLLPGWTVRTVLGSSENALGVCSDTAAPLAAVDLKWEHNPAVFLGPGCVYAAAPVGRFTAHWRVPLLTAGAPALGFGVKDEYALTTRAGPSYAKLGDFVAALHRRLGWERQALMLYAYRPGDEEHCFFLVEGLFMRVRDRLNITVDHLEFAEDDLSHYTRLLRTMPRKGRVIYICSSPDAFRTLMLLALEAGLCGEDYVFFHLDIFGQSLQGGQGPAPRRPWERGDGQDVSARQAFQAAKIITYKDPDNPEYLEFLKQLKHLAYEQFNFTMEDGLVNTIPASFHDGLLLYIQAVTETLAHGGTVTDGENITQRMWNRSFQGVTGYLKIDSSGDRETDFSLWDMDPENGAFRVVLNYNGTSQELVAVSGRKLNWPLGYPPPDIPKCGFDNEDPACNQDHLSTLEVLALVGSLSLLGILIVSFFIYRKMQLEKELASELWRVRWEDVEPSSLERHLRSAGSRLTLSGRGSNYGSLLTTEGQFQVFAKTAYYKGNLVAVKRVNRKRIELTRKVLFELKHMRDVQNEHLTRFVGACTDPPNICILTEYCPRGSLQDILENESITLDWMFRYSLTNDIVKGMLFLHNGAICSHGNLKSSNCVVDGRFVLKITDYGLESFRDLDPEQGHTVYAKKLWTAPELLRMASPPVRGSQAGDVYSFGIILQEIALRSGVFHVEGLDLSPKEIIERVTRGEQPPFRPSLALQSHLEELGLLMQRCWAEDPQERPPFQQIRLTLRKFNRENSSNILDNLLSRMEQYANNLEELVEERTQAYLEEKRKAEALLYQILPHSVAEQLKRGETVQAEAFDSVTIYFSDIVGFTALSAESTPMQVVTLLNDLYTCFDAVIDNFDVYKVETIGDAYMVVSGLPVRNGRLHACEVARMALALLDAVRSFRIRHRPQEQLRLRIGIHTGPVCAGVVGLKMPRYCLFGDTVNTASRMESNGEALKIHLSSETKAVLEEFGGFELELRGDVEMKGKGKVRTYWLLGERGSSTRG
Kind of assay: NPRA Functional Cell Assay (cGMP HTRF, NPRA HEK JumpIn stable cells). The class given is cell-based. The settings on record: cGMP production, 1 hour at 37° C., 10-point dose response. Summed up:
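cGMP HTRF read-out after 1 hour compound treatment at 37° C. of human NPRA-expressing HEK JumpIn cells, 1500 cells/well, in buffer with phosphodiesterase inhibitors IBMX and RO20 (100 uM each). Signal converted to [cGMP] by calibration curve; EC50s fitted by 4-parameter logistic; 50 nM h-ANP as positive response.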
For orientation: TR-FRET usually uses a lanthanide donor and a delayed reading to cut background.
`CC(C)(C)[C@H]1CCc2nc3sc(C(=O)N[C@H](CCN4CCCCC4)c4ccc(-c5cnc(O)c(N)c5)cc4)cc3cc2C1` [Example 241, (6S)-N-{(1R)-1-[4-(5-amino-6-hydroxypyridin-3-yl)phenyl]-3-piperidin-1-ylpropyl}-6-tert-butyl-5,6,7,8-tetrahydrothieno[2,3-b]quinoline-2-carboxamide] had a pEC50 of 5.76.
In turn, `Cc1nn(-c2ccc([C@@H](CCN3CCC(O)CC3)NC(=O)c3nc4cc5c(nc4s3)CC[C@H](C(C)(C)C)C5)cn2)c(C)c1O` (racemic) [Example 187, ammonium; 3,5-dimethyl-1-[5-[rac-(1R)-3-(4-hydroxy-1-piperidyl)-1-[[rac-(7S)-7-tert-butyl-5,6,7,8-tetrahydrothiazolo[5,4-b]quinoline-2-carbonyl]amino]propyl]-2-pyridyl]pyrazol-4-olate] gave a pEC50 of 6.19.
Then `CC(C)(C)C1CCc2nc3sc(C(=O)NC(CCN4CC5C(CO)C5C4)c4ccc(-c5ccc(=O)[nH]c5)cc4)cc3cc2C1` (racemic) [Example 27, rac-(6S)-6-tert-butyl-N-[rac-(1R)-3-[6-(hydroxymethyl)-3-azoniabicyclo[3.1.0]hexan-3-yl]-1-[4-(6-oxo-1H-pyridin-3-yl)phenyl]propyl]-5,6,7,8-tetrahydrothieno[2,3-b]quinoline-2-carboxamide;formate], with 6.39; and `CC(C)(C)[C@H]1CCc2nc3sc(C(=O)N[C@H](CCN4CCC(CO)C4)c4ccccc4)cc3cc2C1` (stereo partly drawn) [Example 259, (6S)-6-tert-butyl-N-{(1R)-3-[3-(hydroxymethyl)pyrrolidin-1-yl]-1-phenylpropyl}-5,6,7,8-tetrahydrothieno[2,3-b]quinoline-2-carboxamide], with 5.74.
Then `CC(C)(C)[C@H]1CCc2nc3sc(C(=O)N[C@H](CCN4CCC(O)CC4)c4cccc(C(=O)N5CC(O)(C(F)(F)F)C5)c4)nc3cc2C1` (racemic) [Example 153, rac-(7S)-7-tert-butyl-N-[rac-(1R)-3-(4-hydroxy-1-piperidyl)-1-[3-[3-hydroxy-3-(trifluoromethyl)azetidine-1-carbonyl]phenyl]propyl]-5,6,7,8-tetrahydrothiazolo[5,4-b]quinoline-2-carboxamide], with 6.14.
With `CN1CC(NC(=O)c2cccc([C@@H](CCN3CCC(c4nnn[nH]4)CC3)NC(=O)c3nc4cc5c(nc4s3)CC[C@H](C(C)(C)C)C5)c2)C1` (racemic) [Example 103, rac-(7S)-7-tert-butyl-N-[rac-(1R)-1-[3-[(1-methylazetidin-1-ium-3-yl)carbamoyl]phenyl]-3-[4-(1H-tetrazol-5-yl)-1-piperidyl]propyl]-5,6,7,8-tetrahydrothiazolo[5,4-b] quinoline-2-carboxamide; 2,2,2-trifluoroacetate], the pEC50 was 6.80.
`CC(C)(C)[C@H]1CCc2nc3sc(C(=O)N[C@H](CCNC4CCOCC4)c4ccccc4)cc3cc2C1` [Example 248, (6S)-6-tert-butyl-N-[(1R)-1-phenyl-3-(tetrahydro-2H-pyran-4-ylamino)propyl]-5,6,7,8-tetrahydrothieno[2,3-b]quinoline-2-carboxamide]: the pEC50 was 5.20.
`CC(C)(C)[C@H]1CCc2nc3sc(C(=O)N[C@H](CCNC4CCCC4)c4ccc(-c5ccc(=O)[nH]c5)cc4)cc3cc2C1` (racemic) [Example 52, cyclopentyl-[rac-(3R)-3-[4-(6-oxo-1H-pyridin-3-yl)phenyl]-3-[[rac-(6S)-6-tert-butyl-5,6,7,8-tetrahydrothieno[2,3-b]quinoline-2-carbonyl]amino]propyl] ammonium;formate] had a pEC50 of 6.14.
Take `CN(C)CC[C@@H](NC(=O)c1nc2cc3c(nc2s1)CC[C@H](C(C)(C)C)C3)c1cccc(C(=O)N2CCOCC2)c1` (racemic) [Example 96, rac-(7S)-7-tert-butyl-N-[rac-(1R)-3-(dimethylamino)-1-[3-(morpholine-4-carbonyl)phenyl]propyl]-5,6,7,8-tetrahydrothiazolo[5,4-b] quinoline-2-carboxamide]: the pEC50 was 5.99.
`CN(C)CC[C@@H](NC(=O)c1nc2cc3c(nc2s1)CC[C@H](C(C)(C)C)C3)c1cccc(C(=O)N[C@H]2CCN(C)C2)c1` (racemic) [Example 87, rac-(7S)-7-tert-butyl-N-[rac-(1R)-3-(dimethyl-amino)-1-[3-[rac-(3S)-1-methylpyrrolidin-3-yl]carbamoyl]phenyl]propyl]-5,6,7,8-tetrahydrothiazolo[5,4-b] quinoline-2-carboxamide] gave a pEC50 of 6.68.
The compound `Cc1n[nH]c(C)c1-c1ccc([C@@H](CCN2CCC(O)CC2)NC(=O)c2nc3cc4c(nc3s2)CC[C@H](C(C)(C)C)C4)cc1` (racemic) [Example 173, rac-(7S)-7-tert-butyl-N-[rac-(1R)-1-[4-(3,5-dimethyl-1H-pyrazol-4-yl)phenyl]-3-(4-hydroxy-1-piperidyl)propyl]-5,6,7,8-tetrahydrothiazolo[5,4-b]quinoline-2-carboxamide] showed a pEC50 of 6.02.
Turning to `CC1(O)CN(C(=O)c2cccc([C@@H](CCN3CCC(O)CC3)NC(=O)c3nc4cc5c(nc4s3)CC[C@H](C(C)(C)C)C5)c2)C1` (racemic) [Example 145, rac-(7S)-7-tert-butyl-N-[rac-(1R)-1-[3-(3-hydroxy-3-methyl-azetidine-1-carbonyl)phenyl]-3-(4-hydroxy-1-piperidyl)propyl]-5,6,7,8-tetrahydrothiazolo[5,4-b]quinoline-2-carboxamide], the pEC50 was 6.26.
With `CC(C)(C)[C@H]1CCc2nc3sc(C(=O)N[C@H](CCNCCO)c4ccc(-c5ccc(=O)[nH]c5)cc4)cc3cc2C1` (racemic) [Example 49, 2-hydroxyethyl-[rac-(3R)-3-[4-(6-oxo-1H-pyridin-3-yl)phenyl]-3-[[rac-(6S)-6-tert-butyl-5,6,7,8-tetrahydrothieno[2,3-b]quinoline-2-carbonyl]amino}propyl] ammonium;formate] the figure was 6.17; with `CN(C)CC[C@@H](NC(=O)c1nc2cc3c(nc2s1)CC[C@H](C(C)(C)C)C3)c1cccc(C(=O)NCC2CCN(C)C2)c1` (mixture of isomers) [Example 88, rac-(7S)-7-tert-butyl-N-[rac-(1R)-3-(dimethylamino)-1-[3-[(1-methylpyrrolidin-3-yl)methylcarbamoyl]phenyl]propyl]-5,6,7,8-tetrahydrothiazolo[5,4-b] quinoline-2-carboxamide], 6.64.
Regarding `CC(C)(C)[C@H]1CCc2nc3sc(C(=O)N[C@H](CCN4CCC(C(=O)O)CC4)c4ccccc4)cc3cc2C1` [Example 258, 1-[(3R)-3-({[(6S)-6-tert-butyl-5,6,7,8-tetrahydrothieno[2,3-b]quinolin-2-yl]carbonyl}amino)-3-phenylpropyl]piperidine-4-carboxylic acid], the negative-log EC50 (pEC50) was 5.68.
For the compound `CC(C)(C)[C@H]1CCc2nc3sc(C(=O)N[C@H](CCN4CCC(O)CC4)c4cccc(C(=O)N5CC(O)C5)c4)nc3cc2C1` (racemic) [Example 156, rac-(7S)-7-tert-butyl-N-[rac-(1R)-1-[3-(3-hydroxyazetidine-1-carbonyl)phenyl]-3-(4-hydroxy-1-piperidyl)propyl]-5,6,7,8-tetrahydrothiazolo[5,4-b]quinoline-2-carboxamide], the pEC50 was 6.08.
`CC(C)(C)[C@H]1CCc2nc3sc(C(=O)N[C@H](CCN4CCC(O)CC4)c4cccc(C(=O)NC5CCCNC5)c4)nc3cc2C1` (mixture of isomers) [Example 143, rac-(7S)-7-tert-butyl-N-[rac-(1R)-3-(4-hydroxy-1-piperidyl)-1-[3-(3-piperidylcarbamoyl)phenyl]propyl]-5,6,7,8-tetrahydrothiazolo[5,4-b]quinoline-2-carboxamide] showed a pEC50 of 6.56.
Take `CC1(O)CN(CC[C@@H](NC(=O)c2cc3cc4c(nc3s2)CC[C@H](C(C)(C)C)C4)c2ccc(-c3ccc(=O)[nH]c3)cc2)C1` (racemic) [Example 65, rac-(6S)-6-tert-butyl-N-[rac-(1R)-3-(3-hydroxy-3-methyl-azetidin-1-ium-1-yl)-1-[4-(6-oxo-1H-pyridin-3-yl)phenyl]propyl]-5,6,7,8-tetrahydrothieno[2,3-b]quinoline-2-carboxamide;formate]: the negative-log EC50 (pEC50) is 5.89.
Take `CC(C)(C)[C@H]1CCc2nc3sc(C(=O)N[C@H](CCN4CCC(O)CC4)c4ccc(N5CCOC5=O)cc4)nc3cc2C1` [Example 230, (S)-7-(tert-butyl)-N-((R)-3-(4-hydroxypiperidin-1-yl)-1-(4-(2-oxooxazolidin-3-yl)phenyl)propyl)-5,6,7,8-tetrahydrothiazolo[5,4-b]quinoline-2-carboxamide]: the pEC50 is 5.99.
